Positions of bridges follow the written chain, without caps; N, C: chain ends. Residues, ends and D or L forms follow the SMILES beside them.
Experiments:
Test in all cases: cell-based
hNav1.7 = hNav1.7 (Homo sapiens, UniProt Q15858); assay type: cell-based; conditions: IonWorks Quattro, use-dependent block, hNav1.7; read-out: IWQ Use Nav1.7
hNav1.5 = hNav1.5 (Homo sapiens, UniProt Q14524); conditions: IonWorks Quattro, use-dependent block, hNav1.5; read-out: IWQ Use Nav1.5
hNav1.3 = hNav1.3 (Homo sapiens, UniProt Q9NY46); conditions: IonWorks Quattro, use-dependent block, hNav1.3; read-out: IWQ Use Nav1.3
Chain of hNav1.3 (Q9NY46 whole entry, looked up): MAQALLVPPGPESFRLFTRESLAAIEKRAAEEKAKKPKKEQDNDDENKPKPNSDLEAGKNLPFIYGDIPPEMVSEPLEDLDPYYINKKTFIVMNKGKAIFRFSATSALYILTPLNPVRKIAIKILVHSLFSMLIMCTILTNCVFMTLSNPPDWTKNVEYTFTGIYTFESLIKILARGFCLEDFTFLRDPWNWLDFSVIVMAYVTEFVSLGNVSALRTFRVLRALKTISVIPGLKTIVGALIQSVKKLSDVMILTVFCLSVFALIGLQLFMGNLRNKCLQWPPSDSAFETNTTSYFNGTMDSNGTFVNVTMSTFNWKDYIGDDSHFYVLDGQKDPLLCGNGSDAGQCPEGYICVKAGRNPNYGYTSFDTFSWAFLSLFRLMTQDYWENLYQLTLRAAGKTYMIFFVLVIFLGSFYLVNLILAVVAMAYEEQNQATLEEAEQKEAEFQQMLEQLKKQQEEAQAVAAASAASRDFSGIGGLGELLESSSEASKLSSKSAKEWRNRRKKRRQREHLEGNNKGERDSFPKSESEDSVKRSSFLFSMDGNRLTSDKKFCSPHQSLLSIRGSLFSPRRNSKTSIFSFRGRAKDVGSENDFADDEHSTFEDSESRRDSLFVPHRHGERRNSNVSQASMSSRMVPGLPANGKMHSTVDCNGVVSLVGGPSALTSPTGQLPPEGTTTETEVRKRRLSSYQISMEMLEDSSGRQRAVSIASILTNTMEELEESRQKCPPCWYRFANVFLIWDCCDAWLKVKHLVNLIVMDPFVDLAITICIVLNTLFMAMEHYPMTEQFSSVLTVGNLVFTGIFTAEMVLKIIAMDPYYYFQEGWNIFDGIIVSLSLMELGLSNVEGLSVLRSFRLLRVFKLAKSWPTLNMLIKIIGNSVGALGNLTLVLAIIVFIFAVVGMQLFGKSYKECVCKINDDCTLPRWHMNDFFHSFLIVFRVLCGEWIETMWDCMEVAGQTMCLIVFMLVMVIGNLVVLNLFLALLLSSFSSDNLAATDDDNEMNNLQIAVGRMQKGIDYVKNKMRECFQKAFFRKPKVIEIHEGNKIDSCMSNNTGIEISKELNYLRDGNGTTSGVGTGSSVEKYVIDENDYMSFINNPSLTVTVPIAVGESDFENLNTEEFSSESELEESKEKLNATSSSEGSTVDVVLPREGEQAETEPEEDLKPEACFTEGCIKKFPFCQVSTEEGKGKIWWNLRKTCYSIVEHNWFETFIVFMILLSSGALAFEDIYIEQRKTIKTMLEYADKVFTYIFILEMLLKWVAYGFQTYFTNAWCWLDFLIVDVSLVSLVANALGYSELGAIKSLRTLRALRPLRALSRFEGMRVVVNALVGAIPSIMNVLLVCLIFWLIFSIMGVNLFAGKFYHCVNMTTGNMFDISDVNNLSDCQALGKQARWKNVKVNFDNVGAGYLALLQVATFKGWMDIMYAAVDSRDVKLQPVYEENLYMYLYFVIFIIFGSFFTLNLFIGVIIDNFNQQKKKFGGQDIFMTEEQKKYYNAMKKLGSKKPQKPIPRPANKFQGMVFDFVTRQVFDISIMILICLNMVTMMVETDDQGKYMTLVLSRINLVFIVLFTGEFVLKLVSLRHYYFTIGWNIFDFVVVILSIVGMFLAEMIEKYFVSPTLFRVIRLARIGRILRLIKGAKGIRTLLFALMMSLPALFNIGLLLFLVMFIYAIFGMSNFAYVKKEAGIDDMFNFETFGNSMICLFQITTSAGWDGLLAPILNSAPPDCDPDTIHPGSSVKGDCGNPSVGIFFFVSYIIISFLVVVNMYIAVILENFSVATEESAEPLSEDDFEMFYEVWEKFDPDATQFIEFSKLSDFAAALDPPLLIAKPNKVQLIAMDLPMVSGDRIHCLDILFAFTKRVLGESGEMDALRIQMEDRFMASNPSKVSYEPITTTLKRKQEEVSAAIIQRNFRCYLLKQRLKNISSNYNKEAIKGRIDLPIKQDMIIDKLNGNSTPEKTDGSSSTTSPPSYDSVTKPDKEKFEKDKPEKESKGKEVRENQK

Chain of hNav1.7 (Q15858 whole entry, looked up): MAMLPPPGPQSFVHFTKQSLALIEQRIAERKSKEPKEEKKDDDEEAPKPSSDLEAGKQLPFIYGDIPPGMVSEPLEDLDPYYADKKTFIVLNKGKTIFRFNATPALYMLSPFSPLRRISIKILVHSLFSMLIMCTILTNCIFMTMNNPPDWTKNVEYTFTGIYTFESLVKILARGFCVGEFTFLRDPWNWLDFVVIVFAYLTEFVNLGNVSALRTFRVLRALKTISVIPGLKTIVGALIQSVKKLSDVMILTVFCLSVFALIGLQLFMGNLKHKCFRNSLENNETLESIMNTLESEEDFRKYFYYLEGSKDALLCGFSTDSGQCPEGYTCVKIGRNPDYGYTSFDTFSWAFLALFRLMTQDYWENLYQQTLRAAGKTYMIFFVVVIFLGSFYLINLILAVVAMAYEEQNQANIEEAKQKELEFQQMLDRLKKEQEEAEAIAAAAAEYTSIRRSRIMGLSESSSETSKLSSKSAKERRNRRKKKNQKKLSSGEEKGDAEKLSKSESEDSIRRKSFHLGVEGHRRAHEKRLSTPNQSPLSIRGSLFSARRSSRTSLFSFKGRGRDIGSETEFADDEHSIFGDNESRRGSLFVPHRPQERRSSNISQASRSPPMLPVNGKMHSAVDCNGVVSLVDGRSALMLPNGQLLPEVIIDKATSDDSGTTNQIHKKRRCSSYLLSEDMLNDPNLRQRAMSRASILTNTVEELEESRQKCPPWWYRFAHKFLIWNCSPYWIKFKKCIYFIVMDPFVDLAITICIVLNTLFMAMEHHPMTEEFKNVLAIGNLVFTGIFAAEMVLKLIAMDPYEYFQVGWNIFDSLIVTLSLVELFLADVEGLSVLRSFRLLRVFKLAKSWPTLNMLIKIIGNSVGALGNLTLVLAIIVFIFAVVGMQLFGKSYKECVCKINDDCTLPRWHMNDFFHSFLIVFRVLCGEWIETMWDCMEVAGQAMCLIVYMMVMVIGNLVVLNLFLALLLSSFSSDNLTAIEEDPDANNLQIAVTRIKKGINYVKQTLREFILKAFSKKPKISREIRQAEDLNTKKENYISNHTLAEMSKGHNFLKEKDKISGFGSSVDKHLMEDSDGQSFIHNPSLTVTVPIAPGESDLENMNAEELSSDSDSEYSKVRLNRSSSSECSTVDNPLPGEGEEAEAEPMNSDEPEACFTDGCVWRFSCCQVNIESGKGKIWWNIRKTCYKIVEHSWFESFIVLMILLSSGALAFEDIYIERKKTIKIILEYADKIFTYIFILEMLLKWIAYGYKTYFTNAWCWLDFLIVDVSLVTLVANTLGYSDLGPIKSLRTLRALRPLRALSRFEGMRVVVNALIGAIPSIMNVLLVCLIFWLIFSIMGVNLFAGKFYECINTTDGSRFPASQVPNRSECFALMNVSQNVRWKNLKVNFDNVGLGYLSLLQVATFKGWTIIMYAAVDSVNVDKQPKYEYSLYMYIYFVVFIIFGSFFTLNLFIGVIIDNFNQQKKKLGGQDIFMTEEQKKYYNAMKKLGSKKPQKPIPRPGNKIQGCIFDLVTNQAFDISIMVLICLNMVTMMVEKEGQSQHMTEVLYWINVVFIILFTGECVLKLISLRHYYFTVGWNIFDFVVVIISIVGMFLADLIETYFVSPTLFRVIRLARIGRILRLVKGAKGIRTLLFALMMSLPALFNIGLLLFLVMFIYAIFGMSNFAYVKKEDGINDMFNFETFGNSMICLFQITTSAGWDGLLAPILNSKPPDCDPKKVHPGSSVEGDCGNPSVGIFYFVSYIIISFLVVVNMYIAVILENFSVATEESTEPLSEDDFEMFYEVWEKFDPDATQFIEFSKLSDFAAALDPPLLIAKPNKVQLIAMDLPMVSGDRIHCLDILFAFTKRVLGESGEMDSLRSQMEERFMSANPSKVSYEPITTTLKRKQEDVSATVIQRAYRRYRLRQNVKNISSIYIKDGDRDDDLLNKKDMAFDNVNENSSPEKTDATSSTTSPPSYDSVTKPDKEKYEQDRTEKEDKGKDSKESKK

Row | SMILES | IC50 (hNav1.7) [µM] | IC50 (hNav1.5) [µM] | IC50 (hNav1.3) [µM]
1 | CC[C@H](C)[C@@H]1NC(=O)[C@@H]2CSSC[C@@H]3NC(=O)[C@H](C(C)C)NC(=O)[C@H](CC(C)C)NC(=O)[C@H](CC(N)=O)NC(=O)[C@@H]4CCCN4C(=O)[C@H](CCCNC(=N)N)NC(=O)[C@H](CSSC[C@H](NC(=O)[C@@H](N)CC(=O)O)C(=O)N[C@@H](CC(C)C)C(=O)NCC(=O)N[C@@H](C)C(=O)N[C@@H](CC(C)C)C(=O)N[C@@H](CCCNC(=N)N)C(=O)N[C@@H](CCCCN)C(=O)N2)NC(=O)[C@H](CSSC[C@@H](C(=O)N[C@@H](CCCCN)C(=O)N[C@@H](Cc2ccc(O)cc2)C(=O)N[C@H](C(=O)N[C@@H](Cc2ccccc2)C(=O)O)C(C)C)NC(=O)[C@H](Cc2c[nH]c4ccccc24)NC(=O)[C@H](CCCNC(=N)N)NC(=O)[C@H](Cc2c[nH]cn2)NC(=O)[C@H]([C@@H](C)O)NC(=O)[C@H](CCCNC(=N)N)NC(=O)[C@H](CO)NC3=O)NC(=O)[C@H](CCCCN)NC(=O)[C@H](CC(=O)O)NC(=O)[C@H](CCC(=O)O)NC(=O)[C@H](CC(=O)O)NC(=O)[C@@H]2CCCN2C1=O [compound 862] (H-DCLGALRKCIPDEDKCCRPNLVCSRTHRWCKYVF-OH; disulfide 2-17, 9-23, 16-30) | > 5 | > 5 | > 5
2 | CC[C@H](C)[C@@H]1NC(=O)[C@@H]2CSSC[C@@H]3NC(=O)[C@H](C(C)C)NC(=O)[C@H](CC(C)C)NC(=O)[C@H](CC(N)=O)NC(=O)[C@@H]4CCCN4C(=O)[C@H](CCCNC(=N)N)NC(=O)[C@H](CSSC[C@H](NC(=O)[C@@H](N)CC(=O)O)C(=O)N[C@@H](CC(C)C)C(=O)NCC(=O)N[C@@H](C)C(=O)N[C@@H](CC(C)C)C(=O)N[C@@H](CCCNC(=N)N)C(=O)N[C@@H](CCCCN)C(=O)N2)NC(=O)[C@H](CSSC[C@@H](C(=O)N[C@@H](CCCCN)C(=O)N[C@@H](Cc2ccc(O)cc2)C(=O)N[C@H](C(=O)N[C@@H](Cc2ccccc2)C(=O)O)C(C)C)NC(=O)[C@H](Cc2c[nH]c4ccccc24)NC(=O)[C@H](CCCNC(=N)N)NC(=O)[C@H](Cc2c[nH]cn2)NC(=O)[C@H]([C@@H](C)O)NC(=O)[C@H](CCCNC(=N)N)NC(=O)[C@H](CO)NC3=O)NC(=O)[C@H](CCCCN)NC(=O)[C@H](CC(=O)O)NC(=O)[C@H](Cc2ccccc2)NC(=O)[C@H](CC(=O)O)NC(=O)[C@@H]2CCCN2C1=O [compound 863] (H-DCLGALRKCIPDFDKCCRPNLVCSRTHRWCKYVF-OH; disulfide 2-17, 9-23, 16-30) | > 5 | > 5 | > 5
3 | CC[C@H](C)[C@@H]1NC(=O)[C@@H]2CSSC[C@@H]3NC(=O)[C@H](C(C)C)NC(=O)[C@H](CC(C)C)NC(=O)[C@H](CC(N)=O)NC(=O)[C@@H]4CCCN4C(=O)[C@H](CCCNC(=N)N)NC(=O)[C@H](CSSC[C@H](NC(=O)[C@@H](N)CC(=O)O)C(=O)N[C@@H](CC(C)C)C(=O)NCC(=O)N[C@@H](C)C(=O)N[C@@H](CC(C)C)C(=O)N[C@@H](CCCNC(=N)N)C(=O)N[C@@H](CCCCN)C(=O)N2)NC(=O)[C@H](CSSC[C@@H](C(=O)N[C@@H](CCCCN)C(=O)N[C@@H](Cc2ccc(O)cc2)C(=O)N[C@H](C(=O)N[C@@H](Cc2ccccc2)C(=O)O)C(C)C)NC(=O)[C@H](Cc2c[nH]c4ccccc24)NC(=O)[C@H](CCCNC(=N)N)NC(=O)[C@H](Cc2c[nH]cn2)NC(=O)[C@H]([C@@H](C)O)NC(=O)[C@H](CCCNC(=N)N)NC(=O)[C@H](CO)NC3=O)NC(=O)[C@H](CCCCN)NC(=O)[C@H](CC(=O)O)NC(=O)[C@H](Cc2c[nH]cn2)NC(=O)[C@H](CC(=O)O)NC(=O)[C@@H]2CCCN2C1=O [compound 864] (H-DCLGALRKCIPDHDKCCRPNLVCSRTHRWCKYVF-OH; disulfide 2-17, 9-23, 16-30) | > 5 | > 5 | 3.9
4 | CC[C@H](C)[C@@H]1NC(=O)[C@H](CC(=O)O)NC(=O)[C@@H]2CCCN2C(=O)[C@H]([C@@H](C)CC)NC(=O)[C@@H]2CSSC[C@@H]3NC(=O)[C@H](C(C)C)NC(=O)[C@H](CC(C)C)NC(=O)[C@H](CC(N)=O)NC(=O)[C@@H]4CCCN4C(=O)[C@H](CCCNC(=N)N)NC(=O)[C@H](CSSC[C@H](NC(=O)[C@@H](N)CC(=O)O)C(=O)N[C@@H](CC(C)C)C(=O)NCC(=O)N[C@@H](C)C(=O)N[C@@H](CC(C)C)C(=O)N[C@@H](CCCNC(=N)N)C(=O)N[C@@H](CCCCN)C(=O)N2)NC(=O)[C@H](CSSC[C@@H](C(=O)N[C@@H](CCCCN)C(=O)N[C@@H](Cc2ccc(O)cc2)C(=O)N[C@H](C(=O)N[C@@H](Cc2ccccc2)C(=O)O)C(C)C)NC(=O)[C@H](Cc2c[nH]c4ccccc24)NC(=O)[C@H](CCCNC(=N)N)NC(=O)[C@H](Cc2c[nH]cn2)NC(=O)[C@H]([C@@H](C)O)NC(=O)[C@H](CCCNC(=N)N)NC(=O)[C@H](CO)NC3=O)NC(=O)[C@H](CCCCN)NC(=O)[C@H](CC(=O)O)NC1=O [compound 865] (H-DCLGALRKCIPDIDKCCRPNLVCSRTHRWCKYVF-OH; disulfide 2-17, 9-23, 16-30) | > 5 | > 5 | > 5
5 | CC[C@H](C)[C@@H]1NC(=O)[C@@H]2CSSC[C@@H]3NC(=O)[C@H](C(C)C)NC(=O)[C@H](CC(C)C)NC(=O)[C@H](CC(N)=O)NC(=O)[C@@H]4CCCN4C(=O)[C@H](CCCNC(=N)N)NC(=O)[C@H](CSSC[C@H](NC(=O)[C@@H](N)CC(=O)O)C(=O)N[C@@H](CC(C)C)C(=O)NCC(=O)N[C@@H](C)C(=O)N[C@@H](CC(C)C)C(=O)N[C@@H](CCCNC(=N)N)C(=O)N[C@@H](CCCCN)C(=O)N2)NC(=O)[C@H](CSSC[C@@H](C(=O)N[C@@H](CCCCN)C(=O)N[C@@H](Cc2ccc(O)cc2)C(=O)N[C@H](C(=O)N[C@@H](Cc2ccccc2)C(=O)O)C(C)C)NC(=O)[C@H](Cc2c[nH]c4ccccc24)NC(=O)[C@H](CCCNC(=N)N)NC(=O)[C@H](Cc2c[nH]cn2)NC(=O)[C@H]([C@@H](C)O)NC(=O)[C@H](CCCNC(=N)N)NC(=O)[C@H](CO)NC3=O)NC(=O)[C@H](CCCCN)NC(=O)[C@H](CC(=O)O)NC(=O)[C@H](CCCCN)NC(=O)[C@H](CC(=O)O)NC(=O)[C@@H]2CCCN2C1=O [compound 866] (H-DCLGALRKCIPDKDKCCRPNLVCSRTHRWCKYVF-OH; disulfide 2-17, 9-23, 16-30) | > 5 | > 5 | 2.3
6 | CC[C@H](C)[C@@H]1NC(=O)[C@@H]2CSSC[C@@H]3NC(=O)[C@H](C(C)C)NC(=O)[C@H](CC(C)C)NC(=O)[C@H](CC(N)=O)NC(=O)[C@@H]4CCCN4C(=O)[C@H](CCCNC(=N)N)NC(=O)[C@H](CSSC[C@H](NC(=O)[C@@H](N)CC(=O)O)C(=O)N[C@@H](CC(C)C)C(=O)NCC(=O)N[C@@H](C)C(=O)N[C@@H](CC(C)C)C(=O)N[C@@H](CCCNC(=N)N)C(=O)N[C@@H](CCCCN)C(=O)N2)NC(=O)[C@H](CSSC[C@@H](C(=O)N[C@@H](CCCCN)C(=O)N[C@@H](Cc2ccc(O)cc2)C(=O)N[C@H](C(=O)N[C@@H](Cc2ccccc2)C(=O)O)C(C)C)NC(=O)[C@H](Cc2c[nH]c4ccccc24)NC(=O)[C@H](CCCNC(=N)N)NC(=O)[C@H](Cc2c[nH]cn2)NC(=O)[C@H]([C@@H](C)O)NC(=O)[C@H](CCCNC(=N)N)NC(=O)[C@H](CO)NC3=O)NC(=O)[C@H](CCCCN)NC(=O)[C@H](CC(=O)O)NC(=O)[C@H](CC(C)C)NC(=O)[C@H](CC(=O)O)NC(=O)[C@@H]2CCCN2C1=O [compound 867] (H-DCLGALRKCIPDLDKCCRPNLVCSRTHRWCKYVF-OH; disulfide 2-17, 9-23, 16-30) | > 5 | > 5 | 4.9
7 | CC[C@H](C)[C@@H]1NC(=O)[C@@H]2CSSC[C@@H]3NC(=O)[C@H](C(C)C)NC(=O)[C@H](CC(C)C)NC(=O)[C@H](CC(N)=O)NC(=O)[C@@H]4CCCN4C(=O)[C@H](CCCNC(=N)N)NC(=O)[C@H](CSSC[C@H](NC(=O)[C@@H](N)CC(=O)O)C(=O)N[C@@H](CC(C)C)C(=O)NCC(=O)N[C@@H](C)C(=O)N[C@@H](CC(C)C)C(=O)N[C@@H](CCCNC(=N)N)C(=O)N[C@@H](CCCCN)C(=O)N2)NC(=O)[C@H](CSSC[C@@H](C(=O)N[C@@H](CCCCN)C(=O)N[C@@H](Cc2ccc(O)cc2)C(=O)N[C@H](C(=O)N[C@@H](Cc2ccccc2)C(=O)O)C(C)C)NC(=O)[C@H](Cc2c[nH]c4ccccc24)NC(=O)[C@H](CCCNC(=N)N)NC(=O)[C@H](Cc2c[nH]cn2)NC(=O)[C@H]([C@@H](C)O)NC(=O)[C@H](CCCNC(=N)N)NC(=O)[C@H](CO)NC3=O)NC(=O)[C@H](CCCCN)NC(=O)[C@H](CC(=O)O)NC(=O)[C@H](CCSC)NC(=O)[C@H](CC(=O)O)NC(=O)[C@@H]2CCCN2C1=O [compound 868] (H-DCLGALRKCIPDMDKCCRPNLVCSRTHRWCKYVF-OH; disulfide 2-17, 9-23, 16-30) | > 5 | > 5 | > 5
8 | CC[C@H](C)[C@@H]1NC(=O)[C@@H]2CSSC[C@@H]3NC(=O)[C@H](C(C)C)NC(=O)[C@H](CC(C)C)NC(=O)[C@H](CC(N)=O)NC(=O)[C@@H]4CCCN4C(=O)[C@H](CCCNC(=N)N)NC(=O)[C@H](CSSC[C@H](NC(=O)[C@@H](N)CC(=O)O)C(=O)N[C@@H](CC(C)C)C(=O)NCC(=O)N[C@@H](C)C(=O)N[C@@H](CC(C)C)C(=O)N[C@@H](CCCNC(=N)N)C(=O)N[C@@H](CCCCN)C(=O)N2)NC(=O)[C@H](CSSC[C@@H](C(=O)N[C@@H](CCCCN)C(=O)N[C@@H](Cc2ccc(O)cc2)C(=O)N[C@H](C(=O)N[C@@H](Cc2ccccc2)C(=O)O)C(C)C)NC(=O)[C@H](Cc2c[nH]c4ccccc24)NC(=O)[C@H](CCCNC(=N)N)NC(=O)[C@H](Cc2c[nH]cn2)NC(=O)[C@H]([C@@H](C)O)NC(=O)[C@H](CCCNC(=N)N)NC(=O)[C@H](CO)NC3=O)NC(=O)[C@H](CCCCN)NC(=O)[C@H](CC(=O)O)NC(=O)[C@H](CCC(N)=O)NC(=O)[C@H](CC(=O)O)NC(=O)[C@@H]2CCCN2C1=O [compound 869] (H-DCLGALRKCIPDQDKCCRPNLVCSRTHRWCKYVF-OH; disulfide 2-17, 9-23, 16-30) | > 5 | > 5 | > 5
